Values joined by “and” are separate entries in the source; they are usually repeats but may differ in a detail not shown here. Identical values can stand only once. Marks after values point to notes of the source that are not given here. Bridge positions count the residues as written; N and C are the ends. Square brackets hold non-standard residues; d marks the D form. Peptide text beside a SMILES is read from it. Trp(1-Me) = Cn1cc(C[C@H](N)C(=O)O)c2ccccc21
Assays:
[1] = system: soluble C5b-9; assay: Soluble C5b-9 ELISA of the RPE cell-based assay medium; parameters: species or system human; settings: peptide 1 μM; for soluble C5b-9 in assay medium relative to positive control: 10% human complement serum, ~24 hrs, mean±S.E.M., three donors; for Assay medium C5b-9 ELISA % of positive control: RPE cell assay medium, Mean (S.E.M.)
Method: (§1) The in vitro drusen biogenesis model was employed. Human fetal RPE cells (Advanced Bioscience Resources, Alameda, Calif.) were cultured on Millipore HA porous supports (Millipore, Cat # PIHA 01250) in Miller medium (Maminishkis et al., 2006) supplemented with 5% fetal calf serum (FCS). Cultures derived from three different donor eyes were employed. Cells were rinsed with warm, sterile PBS and the insert membrane was excised with a scalpel and cut into small (˜4 mm^2) pieces which were placed in wells of a 96-well plate. To minimize effects of inter-culture variability, samples prepared from a single membrane were utilized for each experiment. The samples were rinsed in PBS and then exposed individually to the library of compstatin family peptides at 1 μM in FCS-free Miller medium containing 10% human complement serum (Innovative Research, Cat # IPLA-CSER AB, Lot # L12402). In preliminary experiments, compstatin family Peptides I, III, VI, VII, VIII, IX, and Parent (Table 7), were tested in the RPE cell assay at 100 μM and titrated by C5b-9 ELISA over a concentration range of 0.04-130 μM. […] Also from this assessment, Peptide VI, as well as Peptides I and III, were selected for further studies. Peptides I and III were chosen for comparative studies to Peptide VI, because they contain an arginine residue at position 1. The goal was to determine whether peptides containing arginine at position −1 (Peptide VI) or at position 1 (Peptides I and III) were potent complement inhibitors using the RPE cell assay and had improved aqueous solubility compared to previously known potent analogs. Negative control cells were exposed to Miller medium+5% FCS; positive control cells were exposed to Miller medium+10% human complement serum without inhibitory peptides. Experimental and control medium/inhibitor solutions were pre-mixed on a rocker at room temperature for 30 min, then warmed to 37° C., prior to placement on the samples and incubation for ˜24 hrs at 37° C. in a 7.0% CO2 incubator. Following the incubation period, the medium was removed and stored frozen prior to ELISA analysis. The cell/membrane samples were rinsed in PBS, fixed in cold 4% paraformaldehyde (PFA) in PBS for 20 min, and stored in 0.4% PFA until use in immunohistochemical assays.
Soluble C5b-9 ELISA of the RPE Cell-Based Assay Medium.
Experimental medium solutions were diluted 1/625 in assay diluent and quadruplicate ELISAs were performed using an OptEIA C5b-9 ELISA kit (BD Biosciences, Cat #558315). Plates were read at 450 nm, with absorbance at 570 nm subtracted for wavelength correction, on a BioRad Benchmark plate reader. C5b-9 concentrations were calculated using a standard curve generated using purified human C5b-9. Data was expressed as a percentage relative to the positive (human serum only) control. Means and standard errors for data from the three RPE donor cells were calculated and graphed using SigmaPlot 11.0 (Systat Software, San Jose, Calif.), and one-way ANOVA was calculated using Tukey's test for multiple comparisons.

[2] = system: Human fetal RPE cells; assay: RPE cell-based assay: confocal analysis of deposit-associated C5b-9 (normalized to ApoE); settings: peptide 1 μM; for deposit-associated C5b-9 (C5b-9/ApoE) relative to positive control: ~24 hrs, mean±S.E.M., RPE cultures of three donors; for Confocal Imaging % of positive control: deposit-associated C5b-9 normalized to ApoE, Mean (S.E.M.)
Method: as §1
Fixed samples were rinsed several times in PBS, embedded in 10% agarose (Type XI, Sigma-Aldrich, Cat # A3038) and sectioned at 100 μm on a vibratome. Sections were blocked with normal donkey serum ( 1/20 in PBT: PBS containing 0.5% bovine serum albumin and 0.1% Triton X-100) overnight at 4° C. The sections were then co-incubated in two primary antibodies (polyclonal goat anti-ApoE, Millipore Cat # AB947; 1/1000 in PBT, and mouse monoclonal anti-05b-9 aEll, Dako Cat # M0777; 1/200 in PBT) overnight at 4° C., then rinsed in PBT and co-incubated in secondary antibodies (Alexa Fluor 546-conjugated donkey anti-goat IgG and Alexa Fluor 488-conjugated donkey anti-mouse IgG, both 1/200 in PBT; Life Technologies Cat # A-11056 and # A-21202) overnight at 4° C. Sections were rinsed in PBT, stained with Hoechst 33342 (Life Technologies Cat # H3570), and mounted on slides with Prolong Gold (Life Technologies Cat # P36930).
Samples were imaged on an Olympus FV1000 confocal laser scanning microscope. A total of 154 single-plane images were acquired at a resolution of 1024×768 pixels and the digital image files were saved in 24-bit tiff format. Digital image analysis was performed with MetaMorph software (Molecular Devices, Sunnyvale, Calif.). For the analysis, a standard measurement region, which included both the RPE cell monolayer and all of the adjacent sub-cellular deposits, was applied to each image. The Set Threshold Color Tool was utilized to analyze each color channel separately; the threshold tool creates a boundary around the objects being measured (i.e., sub-cellular deposits) on the basis of color intensity. […]

## CC[C@H](C)[C@H](N)C(=O)N[C@H]1CSSC[C@@H](C(=O)N[C@H](C(N)=O)[C@@H](C)O)NC(=O)[C@H](CCCN=C(N)N)NC(=O)[C@H](Cc2cnc[nH]2)NC(=O)[C@H](Cc2cnc[nH]2)NC(=O)CNC(=O)[C@H](Cc2c[nH]c3ccccc23)NC(=O)[C@H](CC(=O)O)NC(=O)[C@H](CCC(N)=O)NC(=O)[C@H](C(C)C)NC(=O)[C@H](C(C)C)NC1=O [Parent, ICV VQDWGH HRCT-NH2, reference compound]
[1]
  soluble C5b-9 in assay medium relative to positive control: 88.5±0.76%
  Assay medium C5b-9 ELISA % of positive control: 88.49 (0.76) % of positive control
[2]; 10% human complement serum
  deposit-associated C5b-9 (C5b-9/ApoE) relative to positive control: 83.2±5.9%
[2]
  Confocal Imaging % of positive control: 83.19 (5.92) % of positive control

## CC(=O)N[C@@H](CCCNC(=N)N)C(=O)N[C@H]1CSSC[C@@H](C(=O)N[C@H](C(N)=O)[C@@H](C)O)NC(=O)[C@H](CCCNC(=N)N)NC(=O)[C@H](Cc2c[nH]cn2)NC(=O)[C@H](C)NC(=O)CNC(=O)[C@H](Cc2c[nH]c3ccccc23)NC(=O)[C@H](CC(=O)O)NC(=O)[C@H](CCC(N)=O)NC(=O)[C@H](Cc2c[nH]c3ccccc23)NC(=O)[C@H](C(C)C)NC1=O [Peptide I, Ac- RCV WQDWGA HRCT-NH2] (Ac-RCVWQDWGAHRCT-NH2; disulfide 2-12)
[1]
  soluble C5b-9 in assay medium relative to positive control: 61.4±2.3%
  Assay medium C5b-9 ELISA % of positive control: 61.37 (2.34)^a % of positive control
[2]; 10% human complement serum
  deposit-associated C5b-9 (C5b-9/ApoE) relative to positive control: 55.3±12.3%
[2]
  Confocal Imaging % of positive control: 55.27 (12.30)^a % of positive control

## CC(=O)N[C@@H](CCCNC(=N)N)C(=O)N[C@H]1CSSC[C@@H](C(=O)N[C@H](C(N)=O)[C@@H](C)O)NC(=O)[C@H](CCCNC(=N)N)NC(=O)[C@H](Cc2c[nH]cn2)NC(=O)[C@H](C)NC(=O)CNC(=O)[C@H](Cc2c[nH]c3ccccc23)NC(=O)[C@H](CC(=O)O)NC(=O)[C@H](CCC(N)=O)NC(=O)[C@H](Cc2cn(C)c3ccccc23)NC(=O)[C@H](C(C)C)NC1=O [Peptide III, Ac- RCV meWQDWGA HRCT-NH2] (Ac-RCV[Trp(1-Me)]QDWGAHRCT-NH2; disulfide 2-12)
[1]
  soluble C5b-9 in assay medium relative to positive control: 50.0±0.8%
  Assay medium C5b-9 ELISA % of positive control: 50.02 (0.82) % of positive control
[2]; 10% human complement serum
  deposit-associated C5b-9 (C5b-9/ApoE) relative to positive control: 20.0±6.8%
[2]
  Confocal Imaging % of positive control: 19.98 (6.84) % of positive control

## CC[C@H](C)[C@H](NC(=O)[C@H](CO)NC(=O)[C@H](CCCNC(=N)N)NC(C)=O)C(=O)N[C@H]1CSSC[C@@H](C(=O)N[C@H](C(N)=O)[C@@H](C)O)NC(=O)[C@H](CCCNC(=N)N)NC(=O)[C@H](Cc2c[nH]cn2)NC(=O)[C@H](C)NC(=O)CNC(=O)[C@H](Cc2c[nH]c3ccccc23)NC(=O)[C@H](CC(=O)O)NC(=O)[C@H](CCC(N)=O)NC(=O)[C@H](Cc2cn(C)c3ccccc23)NC(=O)[C@H](C(C)C)NC1=O [Peptide VI, Ac-RS-ICV meWQDWGA HRCT-NH2]
[1]
  soluble C5b-9 in assay medium relative to positive control: 44.6±3.2%
  Assay medium C5b-9 ELISA % of positive control: 44.60 (3.16) % of positive control
[2]; RPE 020207, 10% human complement serum, one value per image
  Deposit-associated C5b9 (green channel) immunofluorescence, Integrated Area: 86318 pixels and 70370 pixels and 77727 pixels and 91254 pixels and 59969 pixels
[2]; 10% human complement serum
  deposit-associated C5b-9 (C5b-9/ApoE) relative to positive control: 14.9±5.6%
[2]
  Confocal Imaging % of positive control: 14.85 (5.61) % of positive control

Source: US9512180B2, “Compstatin analogs” (THE REGENTS OF THE UNIVERSITY OF CALIFORNIA, priority 2012, dated 2016)
